The target in the assay is T1, purified human Factor XIa (Homo sapiens, UniProt P03951).
T1 construct: purchased Haematologic Technologies
In words: Factor XIa assay (chromogenic substrate hydrolysis, Ki). It counts as biochemical. Particulars: purified human Factor XIa 75-200 pM, substrate S-2366, 50 mM HEPES pH 7.4. On the procedure:
The effectiveness of compounds of the present invention as inhibitors of the coagulation factors XIa, VIIa, IXa, Xa, XIIa, plasma kallikrein or thrombin, can be determined using a relevant purified serine protease, respectively, and an appropriate synthetic substrate. The rate of hydrolysis of the chromogenic or fluorogenic substrate by the relevant serine protease was measured both in the absence and presence of compounds of the present invention. […] A decrease in the rate of absorbance or fluorescence change in the presence of inhibitor is indicative of enzyme inhibition. Such methods are known to one skilled in the art. The results of this assay are expressed as the inhibitory constant, Ki.
Factor XIa determinations were made in 50 mM HEPES buffer at pH 7.4 containing 145 mM NaCl, 5 mM KCl, and 0.1% PEG 8000 (polyethylene glycol; JT Baker or Fisher Scientific). Determinations were made using purified human Factor XIa at a final concentration of 75-200 pM (Haematologic Technologies) and the synthetic substrate S-2366 (pyroGlu-Pro-Arg-pNA; Chromogenix or AnaSpec) at a concentration of 0.0002-0.001 M.
The Michaelis constant, Km, for substrate hydrolysis by each protease, was determined at 25° C. using the method of Lineweaver and Burk. Values of Ki were determined by allowing the protease to react with the substrate in the presence of the inhibitor. Reactions were allowed to go for periods of 20-180 minutes (depending on the protease) and the velocities (rate of absorbance or fluorescence change versus time) were measured. The following relationships were used to calculate Ki values: (vo−vs)/vs=I/(Ki(1+S/Km)) for a competitive inhibitor with one binding site; or vs/vo=A+((B−A)/1+((IC50/(I)^n))); and Ki=IC50/(1+S/Km) for a competitive inhibitor where: […]

The results in this text go back to patent US8324199B2, “Pyridazine derivatives as factor xia inhibitors” (Bristol-Myers Squibb Company, priority 2008, dated 2012).

Structures are written as SMILES.

T1 sequence (P03951 388-625 limits assumed): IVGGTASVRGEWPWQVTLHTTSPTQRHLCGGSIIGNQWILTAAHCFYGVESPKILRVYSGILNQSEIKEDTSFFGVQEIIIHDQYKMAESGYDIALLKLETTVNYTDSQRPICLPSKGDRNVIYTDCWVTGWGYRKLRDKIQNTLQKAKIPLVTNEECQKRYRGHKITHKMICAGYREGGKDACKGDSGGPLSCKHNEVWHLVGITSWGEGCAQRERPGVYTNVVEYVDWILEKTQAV
T1 sequence (P03951 19-387 partner limits assumed): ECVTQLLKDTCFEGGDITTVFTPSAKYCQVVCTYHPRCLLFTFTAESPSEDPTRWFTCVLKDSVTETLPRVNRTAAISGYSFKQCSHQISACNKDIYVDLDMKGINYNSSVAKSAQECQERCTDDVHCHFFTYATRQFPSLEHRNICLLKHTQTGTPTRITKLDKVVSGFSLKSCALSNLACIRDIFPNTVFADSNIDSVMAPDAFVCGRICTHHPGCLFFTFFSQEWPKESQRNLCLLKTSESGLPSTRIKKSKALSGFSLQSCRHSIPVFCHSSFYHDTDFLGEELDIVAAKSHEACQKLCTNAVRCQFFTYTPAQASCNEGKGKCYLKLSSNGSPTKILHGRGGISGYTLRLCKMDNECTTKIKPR

A word on the Ki: it is a measure of affinity in units of concentration, obtained from inhibition or displacement. Read a low Ki as higher affinity. With `CCOC(=O)Nc1ccc(-c2cc([C@H](Cc3ccccc3)NC(=O)/C=C/c3cc(Cl)ccc3-n3cnnn3)nnc2OCC)cc1` [Example 51, (S,E)-Ethyl 4-(6-(1-(3-(5-chloro-2-(1H-tetrazol-1-yl)phenyl)acrylamido)-2-phenylethyl)-3-ethoxypyridazin-4-yl)phenylcarbamate], the affinity, expressed as Ki, was 405 nM.
Regarding `COC(=O)Nc1ccc(-c2cc([C@H](Cc3cc4n(n3)CCCO4)NC(=O)/C=C/c3cc(Cl)ccc3-n3cnnn3)nnc2Cl)cc1` [Example 97, (S,E)-Methyl 4-(3-chloro-6-(1-(3-(5-chloro-2-(1H-tetrazol-1-yl)phenyl)acrylamido)-2-(6,7-dihydro-5H-pyrazolo[5,1-b][1,3]oxazin-2-yl)ethyl)pyridazin-4-yl)phenylcarbamate], affinity was put at a Ki of 17 nM.
As for `COC(=O)Nc1ccc(-c2cc([C@H](CC3CCCN(C(=O)C4CC4)C3)NC(=O)/C=C/c3cc(Cl)ccc3-n3cnnn3)nnc2Cl)cc1` (stereo partly drawn) [Example 112, Methyl 4-(3-chloro-6-((1S)-1-((E)-3-(5-chloro-2-(1 H-tetrazol-1-yl)phenyl)acrylamido)-2-(1-(cyclopropanecarbonyl)piperidin-3-yl)ethyl)pyridazin-4-yl)phenylcarbamate], the figure is 6360 nM; as for `COC(=O)Nc1ccc(-c2cc([C@H](CCSC)NC(=O)/C=C/c3cc(Cl)ccc3-n3cnnn3)nnc2Cl)cc1` [Example 90, (S,E)-Methyl 4-(3-chloro-6-(1-(3-(5-chloro-2-(1H-tetrazol-1-yl)phenyl)acrylamido)-3-(methylthio)propyl)pyridazin-4-yl)phenylcarbamate], 67 nM.
The value for `Nc1ccc(-c2cc(C(Cc3ccccc3)NC(=O)/C=C/c3cc(Cl)ccc3-n3cnnn3)c(Cl)nn2)cn1` (racemic) [Example 36, (±)-(E)-N-(1-(6-(6-Aminopyridin-3-yl)-3-chloropyridazin-4-yl)-2-phenylethyl)-3-(5-chloro-2-(1H-tetrazol-1-yl)phenyl)acrylamide] was 20 nM.
On to `COC(=O)Nc1ccc(-c2cc([C@H](CC3CN(C(=O)OC(C)(C)C)C3)NC(=O)/C=C/c3cc(Cl)ccc3-n3cnnn3)n[nH]c2=O)cc1` [Example 136, (S,E)-tert-Butyl 3-(2-(3-(5-chloro-2-(1H-tetrazol-1-yl)phenyl)acrylamido)-2-(5-(4-(methoxycarbonylamino)phenyl)-6-oxo-1,6-dihydropyridazin-3-yl)ethyl)azetidine-1-carboxylate], for which the Ki was 503 nM.
Regarding `COC(=O)Nc1ccc(-c2cc([C@H](Cc3cc([S+](C)[O-])n(C)n3)NC(=O)/C=C/c3cc(Cl)ccc3-n3cnnn3)n[nH]c2=O)cc1` (stereo partly drawn) [Example 132, (S,E)-Methyl 4-(6-(1-(3-(5-chloro-2-(1H-tetrazol-1-yl)phenyl)acrylamido)-2-(1-methyl-5-(methylsulfinyl)-1H-pyrazol-3-yl)ethyl)-3-oxo-2,3-dihydropyridazin-4-yl)phenylcarbamate], the affinity corresponds to a Ki of 76 nM.
In turn, `COC(=O)Nc1ccc(-c2cc(C(CC(=O)N3CCN(C)CC3)NC(=O)/C=C/c3cc(Cl)ccc3-n3cnnn3)c(Cl)nn2)cc1` (single isomer, unassigned) [Example 27, (E)-Methyl 4-(6-chloro-5-(1-(3-(5-chloro-2-(1H-tetrazol-1-yl)phenyl)acrylamido)-3-(4-methylpiperazin-1-yl)-3-oxopropyl)pyridazin-3-yl)phenylcarbamate] displayed a Ki of 4 nM.
The value for `NC1CC1C(=O)Nc1ccc(-c2cnnc([C@H](Cc3ccccc3)NC(=O)/C=C/c3cc(Cl)ccc3-n3cnnn3)c2)cc1` (stereo partly drawn) [Example 80, 2-Amino-N-(4-(6-((S)-1-((E)-3-(5-chloro-2-(1H-tetrazol-1-yl)phenyl)acrylamido)-2-phenylethyl)pyridazin-4-yl)phenyl)cyclopropanecarboxamide] was 3330 nM.
